Earlier results as cited in patent US20240285546A1, “TRANSDERMAL THERAPEUTIC SYSTEM CONTAINING AGOMELATINE” (LTS LOHMANN Therapie-Systeme AG, priority 2019, published 2024).

Experiments:
[1] = not given; remark: listed apart in the source

Solubility in water: poorly soluble
Volume of distribution ([1]; in steady state): 35 L
Oral absorption ([1]; oral agomelatine): > 80%
Overall bioavailability ([1]; oral agomelatine): less than 5%
Increase in agomelatine exposure (AUC and cmax) ([1]; patients with moderate hepatic impairment compared to healthy subjects): up to 140 fold
Structure (SMILES): COc1ccc2cccc(CCNC(C)=O)c2c1 [agomelatine, N-(2-(7-Methoxy-1-naphthyl)ethyl)acetamide]
